Results taken from US20110305703A1, “ISOLATED VEGF-C AND VEGF-D PEPTIDES AND USES THEREOF” (Vegenics Pty Limited, priority 2008, published 2011).
Primed or numbered codes have the meaning given here. No end group written: not given here. *: point of attachment. Biotin = O=C1N[C@H]2[C@H](CS[C@H]2CCCCC(=O)*)N1; Biotin′ = not defined here

These substances were tested on VEGF-D neutralizing monoclonal antibody mAb 4A5 (VDnmAb) (assay: ELISA of biotinylated synthetic peptides on streptavidin plates for VDnmAb binding). Conditions: 1st peptide library; 10 pmol peptide; VDnmAb 2 μg/ml; signal more than two-fold greater than background considered positive.
Excerpt: Peptides. A series of synthetic 15-mer peptides (peptides 1 to 35, SEQ ID NOs: 4 to 38 in FIG. 4B, which overlap each other by 12 amino acids) were synthesized (Mimotopes Pty Ltd, Melbourne, Australia). The peptides encompassed the VHD of human VEGF-D (SEQ ID NO: 3, FIG. 4A). Peptide 36 (SEQ ID NO: 39) represented an artificial sequence including a FLAG tag as a positive control for a commercial anti-FLAG mAb (M2; Sigma) that was used as control for non-specific binding to peptides 1 to 35 (SEQ ID NOs: 4 to 38). Biotin was included at the N-terminal of each peptide during synthesis, except that peptide 1 (SEQ ID NO: 4, representing the N-terminal of the VHD) has biotin at the C-terminal. The four-amino acid linker “SGSG” was introduced between the N-terminal of each peptide sequence and biotin to provide more flexibility to peptides after immobilization on streptavidin plates, except peptide 1 (SEQ ID NO: 4) that included the C-terminal linker “GSG”.
ELISA. Reacti-Bind streptavidin high-binding-capacity coated plates (Pierce) were coated with 10 pmol of each peptide in PBS, blocked with 5% milk in PBS-0.1% Tween 20, and incubated with 100 μl of VEGF-D neutralizing monoclonal antibody mAb 4A5 (referred to herein as VDnmAb) or M2 at 2 μg/ml for 1 h at room temperature. Bound mAb was detected with goat anti-mouse IgG coupled with HRP. ABTS was used as the substrate, and the absorbance was read at 405 nm in a multiwell plate reader.
In this 2nd peptide library, biotin was included at the N-terminal of each peptide, and the four-amino acid linker “SGSG” was introduced between each peptide sequence and the biotin residue to provide more flexibility to peptides after immobilization on streptavidin plates. ELISA-based analysis of the 2nd peptide library was carried out as for the 1st peptide library.
Peptide 67 (SEQ ID NO: 141, the same as peptide 36, SEQ ID NO: 39 from the 1st library) and peptide 68 (SEQ ID NO: 142), both containing the FLAG tag, were used as controls. In this 3rd peptide library, biotin was included at the N-terminal of each peptide except peptides 6, 12 and 14 (SEQ ID NOs: 80, 86 and 88) which have C-terminal biotin residues. To provide more flexibility to peptides after immobilization on streptavidin plates, an amino acid linker was introduced between biotin residues and the peptide sequence: “SGSG” for N-terminal biotin; “SGS” for C-terminal biotin. ELISA-based analysis of the 3rd peptide library was carried out as for the 1st peptide library, described in Example 1.

| Substance | VDnmAb binding to peptide (ELISA signal, absorbance at 405 nm) |
| --- | --- |
| peptide 16 (SEQ ID NO: 19): 1st library 15-mer which lacks the three C-terminal residues of peptide 17, SEQ ID NO: 20 (SGSGPPCVNVFRCGGCCNE) | does not bind VDnmAb |

Same assay, conditions: 2nd peptide library; 10 pmol peptide; VDnmAb 2 μg/ml; signal more than two-fold greater than background considered positive

| Substance | VDnmAb binding to peptide (ELISA signal, absorbance at 405 nm) |
| --- | --- |
| 30 (SEQ ID NO: 69): from mouse VEGF-D, homologous to Peptide 31 (SEQ ID NO: 70): serine 150 to glycine, leucine 151 to valine (Biotin-SGSGVNVFRCGGCCNEEGV; cysteine pairing not given here) | complete loss of VDnmAb binding |
| VFRCGGCCNEESL (Biotin-SGSGVFRCGGCCNEESL; cysteine pairing not given here) [peptide 14 (SEQ ID NO: 53), residues 139 to 151 of human VEGF-D, N-terminal biotin and SGSG linker] | the strongest |
| NVFRCGGCCNEESL (Biotin-SGSGNVFRCGGCCNEESL; cysteine pairing not given here) [peptide 13 (SEQ ID NO: 52), residues 138 to 151 of human VEGF-D, N-terminal biotin and SGSG linker] | positive |
| peptide 26 (SEQ ID NO: 65): 2nd library: mutation of two of the cysteine residues to serine (SGSGVNVFRSGGSCNEESL) | more effect |
| VPLMRCGGCCNDEGL (Biotin-SGSGVPLMRCGGCCNDEGL; not fully specified; cysteine pairing not given here) [peptide 33 (SEQ ID NO: 72), residues 78 to 92 of VEGF-A, biotin and linker] | did not bind the antibody |
| VTVQRCGGCCPDDGL (Biotin-SGSGVTVQRCGGCCPDDGL; not fully specified; cysteine pairing not given here) [peptide 34 (SEQ ID NO: 73), residues 73 to 87 of VEGF-B, biotin and linker] | did not bind the antibody |
| peptide 24 (SEQ ID NO: 63): 2nd library: single mutation of cysteine in the binding region, C142S (SGSGVNVFRSGGCCNEESL) | very minor or no effect on VDnmAb binding |
| peptide 23 (SEQ ID NO: 62): 2nd library: single mutation of cysteine in the binding region, C145S (SGSGVNVFRCGGSCNEESL) | very minor or no effect on VDnmAb binding |
| VSLLRCTGCCGDENL (Biotin-SGSGVSLLRCTGCCGDENL; not fully specified; cysteine pairing not given here) [peptide 35 (SEQ ID NO: 74), residues 78 to 92 of PlGF, biotin and linker] | did not bind the antibody |

Same assay, conditions: 3rd peptide library; 10 pmol peptide; VDnmAb 2 μg/ml; signal more than two-fold over background considered positive

| Substance | VDnmAb binding to peptide (ELISA signal, absorbance at 405 nm) |
| --- | --- |
| peptide 28 (SEQ ID NO: 102): 3rd library: variant with deletion of one of N147, E148, E149, S150 (SGSGVFRCGGCCNESL) | loss of VDnmAb binding |
| RCGGCCNEESL [peptide 13 (SEQ ID NO: 87)] (Biotin-SGSGRCGGCCNEESL; cysteine pairing not given here) | the strongest |
| peptide 4 (SEQ ID NO: 78): 3rd library: variant with deletion of one of N147, E148, E149, S150 (SGSGVFRCGGCCNEEL) | loss of VDnmAb binding |
| peptide 21 (SEQ ID NO: 95): 3rd library: mutation R141A (SGSGVFACGGCCNEESL) | little or no effect on VDnmAb binding |
| peptide 26 (SEQ ID NO: 100): 3rd library: mutation E148D (SGSGVFRCGGCCNDESL) | loss, even complete loss, of VDnmAb binding |
| peptide 8 (SEQ ID NO: 82): 3rd library: mutation of residue 151 to alanine (SGSGVFRCGGCCNEESA) | decreased VDnmAb binding |
| peptide 25 (SEQ ID NO: 99): 3rd library: variant with deletion of one of N147, E148, E149, S150 (SGSGVFRCGGCCEESL) | loss of VDnmAb binding |
| peptide 59 (SEQ ID NO: 133): 3rd library: simultaneous changes of most of residues 142 to 146 to alanine (SGSGNVFAAGAAANEESL) | loss, but not complete loss, of binding |
| peptide 18 (SEQ ID NO: 92): 3rd library: mutation F140A (SGSGVARCGGCCNEESL) | little or no effect on VDnmAb binding |
| peptide 24 (SEQ ID NO: 98): 3rd library: mutation N147A (SGSGVFRCGGCCAEESL) | loss, even complete loss, of VDnmAb binding |
| peptide 33 (SEQ ID NO: 107): 3rd library: variant with deletion of one of N147, E148, E149, S150 (SGSGVFRCGGCCNSL) | loss of VDnmAb binding |
| peptide 3 (SEQ ID NO: 77): 3rd library: variant of VFRCGGCCNEESL with mutation S150T (SGSGVFRCGGCCNEETL) | loss, even complete loss, of VDnmAb binding |
| peptide 30 (SEQ ID NO: 104): 3rd library: mutation E149A (SGSGVFRCGGCCNEASL) | loss, even complete loss, of VDnmAb binding |
| peptide 32 (SEQ ID NO: 106): 3rd library: double mutation E148A/E149A (SGSGVFRCGGCCNAASL) | loss, even complete loss, of VDnmAb binding |
| peptide 2 (SEQ ID NO: 76): 3rd library: variant of VFRCGGCCNEESL with mutation S150A (SGSGVFRCGGCCNEEAL) | reduced VDnmAb binding somewhat |
| RCGGCCNEESL [peptide 14 (SEQ ID NO: 88)] (RCGGCCNEESLSGS-{Biotin′}; cysteine pairing not given here) | decreases in VDnmAb binding |
| peptide 23 (SEQ ID NO: 97): 3rd library: mutation N147Q (SGSGVFRCGGCCQEESL) | loss, even complete loss, of VDnmAb binding |
| CGGCCNEESL (SGSGCGGCCNEESL) [peptide 15 (SEQ ID NO: 89)] | positive |

Same assay, conditions: 3rd peptide library; 10 pmol peptide; VDnmAb 2 μg/ml; signal more than two-fold over background considered positive; listed as peptide 5 (SEQ ID NO: 79)

| Substance | VDnmAb binding to peptide (ELISA signal, absorbance at 405 nm) |
| --- | --- |
| VFRCGGCCNEESL (Biotin-SGSGVFRCGGCCNEESL; cysteine pairing not given here) [peptide 14 (SEQ ID NO: 53), residues 139 to 151 of human VEGF-D, N-terminal biotin and SGSG linker] | bound to VDnmAb |
